Measurements taken from article PMC6021345 (Oncotarget, 2018).

Experiments:
p-STAT3 (Tyr705) = assay: Western blot of IL-6 induced p-STAT3 (Tyr705) in cancer cell lines; format: cell-based; details: various cancer cell lines, IL-6 100ng/ml 90 min
Procedure: (§1) CT-26 (murine colon cancer), HCT-116 (human colon cancer), CRL-1739 (human stomach gastric cancer) and CRL-1682 (human pancreatic cancer) cell lines were purchased form ATCC. All cells were cultured in T-75 flasks (Falcon). All media were purchased from Life Technologies and supplemented with 10% fetal bovine serum (Sigma) and 1% penicillin-streptomycin (Fisher Scientific). CT-26 and CRL-1682 were cultured in RPMI-1640 medium. CRL-1739 and HCT-116 were cultured in DMEM medium. All cells were cultured in a 37° C, 5% CO2 incubator.
RIPA buffer was purchased form Fisher Scientific. Xpert protease inhibitor cocktail solution 100X and Xpert phosphatase inhibitor cocktail solution 100X were purchased from GenDEPOT. 4–20% Mini-PROTEAN® TGX™ Gel and Trans-Blot® Turbo™ Mini Nitrocellulose Transfer Packs were purchased form Bio-Rad. Rabbit NF-κB and phospho-Stat3 (Tyr705) primary antibody, mouse β-Actin (8H10D10) primary antibody, and anti-mouse IgG HRP conjugated, anti-rabbit IgG HRP conjugated secondary antibody were purchased from Cell Signaling Technology.

[1] = test system: different cancer cell lines including CT-26; assay: Cell viability analysis on cancer cell lines; format: cell-based; details: Hst alone
Procedure: as §1

intestinal inflammation = assay: Intestinal inflammation in CPT-11 treated mice; format: in vivo
Procedure: (§2) CT-26 cell line was used to make the tumor bearing mouse model by s.c. injection of 0.02mL cells in PBS at 5×10^7 cells/mL into the posterior mid-dorsum. Tumor volumes were estimated by the formula π/6×a^2×b, where a is the short and b is the long axis. When tumor volume reached roughly 100mm^3 (~10 days after implantation, defined as day 1), mice were randomly separated into 5 groups, 1). CPT-11 only group, receiving CPT-11 50mg/kg + vehicle 2). CPT-11+Hst 20mg/kg, 3). CPT-11+Hst 100mg/kg, 4). Hst 100mg/kg only, and 5) vehicle control group. CPT-11 was administrated by i.p. injection from day 1 to day 9 while Hst were administrated by oral gavage from day 1 to the end of study. An equivalent dosage of saline or CMC were administrated by i.p injection and oral gavage as vehicle, respectively. Mice were examined daily for signs of diarrhea (fecal staining of skin, lose watery stool) and bloody diarrhea (black sticky stool), as well as tumor growth. After sacrifice, jejunum, ileum and colon samples were dissected. Tissues were formalin-fixed and paraffin embedded for histological examination using 4μm-thick, 100μm step serial sections stained with H&E. A histologic score to evaluate inflammation, epithelial changes and mucosa architecture for each slide was calculated as described previously. […]

small intestinal CES = assay: Ex vivo small intestinal CES assay (microsomes) after oral Hst; format: in vivo, mice; details: 20 mg/kg Hst oral, 4h after single dose, n=5
Procedure: (§3) Single oral dose of 135 mg Hst in healthy adult subjects was rapidly absorbed and the concentration in plasma observed 20 min after dosing and reached a peak in 4h.
(§4) Microsomes of the liver and small intestinal epithelium were prepared from animals with or without Hst treatment. Animals were killed by exsanguination at 4h after single oral dosing of Hst. Their liver and small intestines were removed immediately and cooled in cold physiological saline. Small intestine epithelium was scraped from the intestine with slide glass. Tissues were homogenized in 1.15% KCl on ice by a Teflon homogenizer, followed by centrifugation at 9,000×g for 10min at 4°C. The supernatant was re-centrifuged at 105,000×g for 60 min at 4°C, resulting in sedimentation of the microsome. The microsomal pellet was re-suspended in 1.15% KCl. To measure CES activity, microsomes (protein content: 1 mg/mL) were incubated with 4-NAP solution in phosphate-buffered saline at 37°C, and 50μL aliquots were sampled up to 20 min.

[2] = test system: murine CT-26 tumor-bearing immuno-competent mice; assay: CPT-11 induced diarrhea in CT-26 tumor-bearing mice; format: in vivo; details: for mice with rapid recovery in body weight: 5 days after cessation of CPT-11; for mice that had to be euthanized: by day 12; for mice that never showed any signs of diarrhea: through end of study
Procedure: We tested the effect of Hst (20 and 100 mg/kg) on murine CT-26 tumor-bearing immuno-competent mice with CPT-11 (50 mg/kg, roughly equivalent to 5 mg/kg typical human CPT-11 dose) intraperitoneally injected daily from day 1-9. Hst was given from day 1-15 and 30 min before CPT-11 administration on day 1-9. Changes of stool character were recorded twice daily to determine the severity of diarrhea. Fecal staining of skin or lose watery stool was determined as diarrhea but not severe, and only the black sticky stool (bloody diarrhea) was determined as severe diarrhea.
CT-26 cell line was used to make the tumor bearing mouse model by s.c. injection of 0.02mL cells in PBS at 5×10^7 cells/mL into the posterior mid-dorsum. Tumor volumes were estimated by the formula π/6×a^2×b, where a is the short and b is the long axis. When tumor volume reached roughly 100mm^3 (~10 days after implantation, defined as day 1), mice were randomly separated into 5 groups, 1). CPT-11 only group, receiving CPT-11 50mg/kg + vehicle 2). CPT-11+Hst 20mg/kg, 3). CPT-11+Hst 100mg/kg, 4). Hst 100mg/kg only, and 5) vehicle control group. CPT-11 was administrated by i.p. injection from day 1 to day 9 while Hst were administrated by oral gavage from day 1 to the end of study. An equivalent dosage of saline or CMC were administrated by i.p injection and oral gavage as vehicle, respectively. Mice were examined daily for signs of diarrhea (fecal staining of skin, lose watery stool) and bloody diarrhea (black sticky stool), as well as tumor growth. After sacrifice, jejunum, ileum and colon samples were dissected. Tissues were formalin-fixed and paraffin embedded for histological examination using 4μm-thick, 100μm step serial sections stained with H&E. A histologic score to evaluate inflammation, epithelial changes and mucosa architecture for each slide was calculated as described previously. For immunohistochemical staining, sections were stained with antibodies against Ki67, β-catenin, F4/80, Ly-6B.2 and pSTAT3 (Tyr705) overnight at 4°C. Slides were then washed and stained with the appropriate secondary antibodies. Mounted slides were examined under Olympus BX61 upright microscopy (HMRI Advanced Cellular and Tissue Microscope Core Facility).

[3] = single oral dose of 135 mg Hst, healthy adult subjects, cited from earlier work
liver CES = assay: Ex vivo liver CES assay (microsomes) after oral Hst; format: in vivo, mice; details: 20 mg/kg Hst oral
Procedure: as §3, §4

p-STAT3 = assay: Immunohistochemistry of p-STAT3 in mouse tumors; format: in vivo, mice; details: CPT-11 + Hst
Procedure: as §2

STAT3 = STAT3 Cignal Reporter Assay; format: cell-based; details: HEK293 cells, Hst 24h, IL-6 100 ng/ml 90 min
Procedure: STAT3 transcription factor activity was measured using the Cignal STAT3 Reporter Assay Kit (Qiagen) according to the manufacturers’ instructions. HEK293 cells were transfected with the Renilla luciferase reporter plasmid. Twenty-four hours later, cells were treated with Hst for 24h, and were incubated with 100 ng/ml IL-6 for 90 min before lysed. Subsequently, Renilla luciferase activity was measured in a microplate reader. Relative transcription factor activity was calculated by dividing relative light units (RLU) of the STAT3-specific reporter and the negative control reporter.

COc1ccc([C@@H]2CC(=O)c3c(O)cc(O)cc3O2)cc1O [hesperetin]
IL-6 induced p-STAT3 (Tyr705) expression (p-STAT3 (Tyr705)): significant down-regulation
cytotoxicity in vitro [1]: did not show any potent cytotoxicity effects
infiltration of inflammatory cells (neutrophils, macrophages) and cytokine release (TNF-α, IL-6) (intestinal inflammation; dose dependent): blocked
tissue expression of NF-κB (intestinal inflammation; mouse small intestine): significantly down-regulated
small intestinal CES activity (small intestinal CES): 2.28±1.42 nmol/min/g protein
reduction of small intestinal CES activity (small intestinal CES; vs control): 56%
mice with severe diarrhea ([2]; CPT-11 + Hst 20 mg/kg oral, day 11): 2 out of 10
mice with rapid recovery in body weight ([2]; CPT-11 + Hst 20 mg/kg): 20%
mice that had to be euthanized ([2]; CPT-11 + Hst 20 mg/kg): 40%
body weight lost on average ([2]; CPT-11 + Hst 20 mg/kg, day 11): 20%
mice that never showed any signs of diarrhea ([2]; CPT-11 + Hst 20 mg/kg): 20%
mice with severe diarrhea ([2]; CPT-11 + Hst 100 mg/kg oral, until day 12): 2 out of 10
mice with rapid recovery in body weight ([2]; CPT-11 + Hst 100 mg/kg): 20%
mice that had to be euthanized ([2]; CPT-11 + Hst 100 mg/kg): 20%
body weight lost on average ([2]; CPT-11 + Hst 100 mg/kg, day 11): 17%
mice that never showed any signs of diarrhea ([2]; CPT-11 + Hst 100 mg/kg): 30%
severe diarrhea prohibited ([2]; oral Hst, CPT-11 administered tumor-bearing mice): 80%
time after dosing at which concentration in plasma was observed [3]: 20 min
time to peak plasma concentration [3]: 4 h
Cmax ([3]; read-out: mean peak plasma concentration (Cmax)): 2730 ± 1350 nM
liver CES activity (liver CES; 4h after single dose, n=5): 8.89±0.74 nmol/min/g protein
change of liver CES activity (liver CES; vs control): did not have an obvious change
p-STAT3 expression in the tumors (p-STAT3): remarkably suppressed
concentration inhibiting IL-6 induced STAT3 reporter activity (STAT3): 20 to 100 µM
